Data published in patent US11596639B2, “Substituted indole Mcl-1 inhibitors” (Vanderbilt University, priority 2016, dated 2023).
Read-outs that look alike come from different tables or passages of the source.

Assays:
Mcl-1 = Mcl-1 (Homo sapiens (Human), UniProt Q07820); assay: Fluorescence polarization anisotropy (FPA) competition assay, FITC-Bak or FITC-Bim BH3 peptide; type: binding; conditions: read-out: Ki for Inhibition of Mcl-1 by FPA assay
[1] = test system: H929 human cancer cell lines; assay: Cellular viability / proliferation (Cell TiterGlo, 72 h); type: cell-based
Summary of the method: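 Compounds were added as 2-fold serial dilutions from 50 μM (final DMSO <1%) to H929 cells seeded 1,000 per well in 10% FBS medium one day earlier.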

[2] = Homo sapiens, NCI-H929, 72 h, read-out: GI50 on cellular proliferation of H929 human cancer cell lines, H929 cells, 72 h, Cell TiterGlo, 10% FBS

Sequence of Mcl-1 (Q07820 172-327): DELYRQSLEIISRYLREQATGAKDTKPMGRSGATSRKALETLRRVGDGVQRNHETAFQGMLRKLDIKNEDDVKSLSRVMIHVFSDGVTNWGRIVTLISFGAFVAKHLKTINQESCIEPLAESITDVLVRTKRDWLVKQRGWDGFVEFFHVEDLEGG

| SMILES | Ki (Mcl-1) | GI50 [1, 2] | GI50 ([1]; H929 cells, 72 h, Cell TiterGlo, 10% FBS, read-out: GI50 on cellular proliferation of H929 human cancer cell lines) |
| --- | --- | --- | --- |
| Cc1cc(OCCCc2c3n(c4c(-c5c(C)nn(C)c5C)c(Cl)ccc24)[C@H](C)CN(c2cccc4c(C)c(C(=O)O)n(C)c24)C3=O)cc(C)c1Cl [Example 316, (R)-7-(7-Chloro-10-(3-(4-chloro-3,5-dimethylphenoxy)propyl)-4-methyl-1-oxo-6-(1,3,5-trimethyl-1H-pyrazol-4-yl)-3,4-dihydropyrazino[1,2-a]indol-2(1H)-yl)-1,3-dimethyl-1H-indole-2-carboxylic acid] | < 1 nM | 470 nM |  |
| Cc1cc(OCCCc2c3n(c4c(-c5c(C)nn(CC6CCN(C)CC6)c5C)c(Cl)ccc24)[C@H](C)CN(c2cccc4c(C(=O)O)cn(C)c24)C3=O)cc(C)c1Cl [Example 137, (R)-7-(7-chloro-10-(3-(4-chloro-3,5-dimethylphenoxy)propyl)-6-(3,5-dimethyl-1-((1-methylpiperidin-4-yl)methyl)-1H-pyrazol-4-yl)-4-methyl-1-oxo-3,4-dihydropyrazino[1,2-a]indol-2(1H)-yl)-1-methyl-1H-indole-3-carboxylic acid] | 1.2 nM | 460 nM |  |
| Cc1cc(OCCCc2c3n(c4c(-c5c(C)nn(C)c5C)c(Cl)ccc24)[C@H](C)CN(c2cccc4cc(C(=O)O)n(Cc5ccncc5)c24)C3=O)cc(C)c1Cl [Example 248, 7-[(4R)-7-chloro-10-[3-(4-chloro-3,5-dimethyl-phenoxy)propyl]-4-methyl-1-oxo-6-(1,3,5-trimethylpyrazol-4-yl)-3,4-dihydropyrazino[1,2-a]indol-2-yl]-1-(4-pyridylmethyl)indole-2-carboxylic acid] | < 1 nM | 570 nM |  |
| Cc1cc(OCCCc2c3n(c4c(-c5c(C)nc(CN6CCCC6)nc5C)c(Cl)ccc24)CCCN(c2cn(C)c4ccc(C(=O)O)cc24)C3=O)cc(C)c1Cl [Example 373] | 1.6 nM |  | 1200 nM |
| Cc1cc(OCCCc2c3n(c4c(-c5c(C)nn(C)c5C)c(Cl)ccc24)[C@H](C)CN(c2ccc4c(C(=O)O)cccc4n2)C3=O)cc(C)c1Cl [Example 157, (R)-2-(7-Chloro-10-(3-(4-chloro-3,5-dimethylphenoxy)propyl)-4-methyl-1-oxo-6-(1,3,5-trimethyl-1H-pyrazol-4-yl)-3,4-dihydropyrazino[1,2-a]indol-2(1H)-yl)quinoline-5-carboxylic acid] | 2.5 nM | 6400 nM |  |
| Cc1cc(OCCCc2c3n(c4c(-c5c(C)nn(C)c5C)c(Cl)ccc24)[C@H](C)CN(c2cc4cc(C(=O)O)ccc4n2C)C3=O)cc(C)c1Cl [Example 174, 2-[(4R)-7-chloro-10-[3-(4-chloro-3,5-dimethyl-phenoxy)propyl]-4-methyl-1-oxo-6-(1,3,5-trimethylpyrazol-4-yl)-3,4-dihydropyrazino[1,2-a]indol-2-yl]-1-methyl-indole-5-carboxylic acid] | 4.2 nM | 6300 nM |  |
| CCn1ncc2c(C(=O)O)cc(N3CCCn4c(c(CCCOc5cc(C)c(Cl)c(C)c5)c5ccc(Cl)c(-c6c(C)nn(C)c6C)c54)C3=O)cc21 [Example 39, 6-[8-chloro-11-[3-(4-chloro-3,5-dimethyl-phenoxy)propyl]-1-oxo-7-(1,3,5-trimethylpyrazol-4-yl)-4,5-dihydro-3H-[1,4]diazepino[1,2-a]indol-2-yl]-1-ethyl-indazole-4-carboxylic acid] | 1.1 nM | 920 nM |  |
| Cc1cc(OCCCc2c3n(c4c(-c5c(C)nn(C)c5C)c(Cl)ccc24)[C@H](C)CN(c2cccc4cc5n(c24)CCNC5=O)C3=O)cc(C)c1Cl [Example 434, (R)-7-Chloro-10-(3-(4-chloro-3,5-dimethylphenoxy)propyl)-4-methyl-6-(1,3,5-trimethyl-1H-pyrazol-4-yl)-3,3′,4,4′-tetrahydro-1H-[2,6′-bipyrazino[1,2-a]indole]-1,1′(2′H)-dione] | 5.5 nM | 890 nM |  |
